Assays:
[1] = system: HO-N-myc cells; test: Secondary filter for Myc specificity: cell growth inhibition, methylene blue staining; assay type: cell-based, rat
Description: (§1) FIG. 4 illustrates the myc specificity of tested compounds. Rat1a cells expressing c-myc, L-myc or N-myc or lacking any Myc (null) were treated for 72 h with a range of hit compound concentrations. The cells were then fixed and stained with methylene blue and the percentage of cells in the presence of compound compared to DMSO only control was calculated.
(§2) Validated hits were divided into classes when two or more compounds shared significant structural similarity. The ID50 for N-myc transactivation (the inhibitory dose resulting in 50% decrease in luciferase activity) for each hit was calculated from the dose-response N-myc responsive reporter assay. Compounds within each class were ranked by their ID50 for N-myc transactivation and the best compounds within each class were chosen for further studies. In addition, the best of the structurally unique compounds were also analyzed. A total of 46 hits were passed through a secondary filter designed to determine the specificity of the hits for Myc proteins. For this filter, we used a panel of cell lines derived from Rat1a cells (kindly provided by Michael Cole, Dartmouth University): HO-null-c-Myc deficient cells due to homologous recombination that express neither N-myc nor L-myc HO-c-Myc, HO-L-myc and HO-N-myc derived by retroviral transduction of the corresponding Myc genes into HO-null cells. Since each cell line expresses only a single Myc or no Myc family members, we could identify compounds that act through Myc family members as well as which Myc family members. […] The 18 Myc-specific compounds identified during the screening and filtering process are presented in Table 1 and represent distinct classes of molecules, including pyrazoles (e.g., N147A7, N47E10, N147G5), tetrazoles (e.g., N77A7) and 3-bromophenol (e.g., N4G6).

[2] = system: HO-c-Myc cells; test: as above; assay type: cell-based, rat
Description: as §1, §2

[3] = system: panel of tumor cell lines, including neuroblastoma and melanoma; test: Effect of Myc inhibitors against panel of tumor cell lines, growth/viability by MTS and resazurin; assay type: cell-based, human; details: neuroblastoma lines IMR32, NBL-WN, 72 h
Description: FIG. 6 illustrates putative Myc inhibitors that are efficacious against tumor but not normal cells. Melanocytes and melanoma (#3 and #10) (A) and neuroblastoma (B) were incubated in the continuous presence of Myc inhibitors for 72 h and cell growth/viability determined by standard MTS and resazurin methods, respectively. Data for three hits is presented as a percent of DMSO vehicle control.

[4] = system: HO-null cells; test: Secondary filter for Myc specificity: cell growth inhibition, methylene blue staining; assay type: cell-based; details: Rattus norvegicus, 72 h, read-out: ID50 HO-null
Description: as §1, §2

[5] = in vitro; details: microsomes, pH 7.4; for Percent Remaining 0 min: 0 h; for Percent Remaining 0 min / Percent Remaining 10 min / Percent Remaining 20 min / Percent Remaining 30 min / Percent Remaining 60 min: 1 μM; for Percent Remaining 30 min: 0.5 h; for Percent Remaining 60 min: 1 h
Description: Additionally, several of the N77A7 analogs were subjected to the test for the metabolic stability in human and mouse liver microsomes. Briefly, 1 μM of test compound was incubated with microsomal protein (human liver microsomes: 0.5 mg/mL; mouse liver microsomes 0.5 mg/mL) and buffer (100 mM potassium phosphate, pH 7.4, 5 mM magnesium chloride). The positive control was 5 μM testosterone. The reaction was equilibrated at 37 C in a shaking water bath for 3 to 5 minutes. After equilibration, an aliquot was removed and combined with 50/50 acetonitrile/water containing 0.1% formic acid and internal standard to terminate the reaction. 1 mM NADPH was immediately added and the tube was returned to the water bath. Five sample time points were taken (0, 10, 20, 30, and 60 minutes). Aliquots were removed and combined with 50/50 acetonitrile/water containing 0.1% formic acid and internal standard to terminate the reaction. The samples were mixed for 10 minutes and centrifuged. The supernatant from each sample was diluted (if necessary) and then transferred to vials for analysis by LC-MS/MS for the test compound and internal standard without calibration standards. The percent remaining at each time point was determined by the test compound's peak area response ratio versus the 0 minute sample.

[6] = system: SK-Mel-103; test: Suppression of proliferation / senescence induction in melanoma line; assay type: cell-based; details: Homo sapiens
Text: (§3) 260 analogs of N77A7 were selected from several commercially available libraries of small molecules based on the structural similarities with N77A7. The compounds were screened for the ability to permanently suppress proliferation and induce senescence in cells from melanoma lines SK-Mel-19 and SK-Mel-103. Based on the above-described screening procedure, seven small molecules were identified as having IC50 values lower than that of N77A7.

[7] = system: SK-Mel-19; test: as above; assay type: cell-based; details: Homo sapiens, SK-MEL19
Text: as §3

Row | Structure (SMILES) | Percent Remaining 0 min ([5]; human) [%] | Percent Remaining 10 min ([5]; human) [%] | Percent Remaining 20 min ([5]; human) [%] | Percent Remaining 30 min ([5]; human) [%] | Percent Remaining 60 min ([5]; human) [%] | half-life at 1 µM ([5]; human) [min] | microsomal CLint at 1 μM ([5]; human) [µL/min/mg] | Percent Remaining 0 min ([5]; mouse) [%] | Percent Remaining 10 min ([5]; mouse) [%] | Percent Remaining 20 min ([5]; mouse) [%] | Percent Remaining 30 min ([5]; mouse) [%] | Percent Remaining 60 min ([5]; mouse) [%] | half-life at 1 µM ([5]; mouse) [min] | microsomal CLint at 1 μM ([5]; mouse) [µL/min/mg] | IC50 [6] [µM] | IC50 [7] [µM] | further results
1 | COCc1cc(CN(C)C2CCCCC2)c(O)c2ncccc12 [Compound N269D8] |  |  |  |  |  |  |  |  |  |  |  |  |  |  |  |  | Myc Index N ([1]; ID50 in HO-null cells divided by ID50 in HO—N-myc cells): 5.3; IC50 ([1]; Rattus norvegicus, cell growth inhibition, 72 h, methylene blue, read-out: ID50 HO—N-myc): 0.85 µM; Myc Index C ([2]; ID50 in HO-null cells divided by ID50 in HO-c-myc cells): 6.3; IC50 ([2]; Rattus norvegicus, cell growth inhibition, 72 h, methylene blue, read-out: ID50 HO-c-myc): 0.72 µM; toxicity to N-myc amplified lines versus SH-EP cells [3]: more toxic to the N-myc amplified cell lines, IMR32 and NBL-WN than to SH-EP cells; IC50 [4]: 4.52 µM
2 | CCN(CC)c1ccc(/C=N/NC(=O)c2cc(C)n[nH]2)c(O)c1 [Compound 3] | 100 | 93 | 66 | 49 | 24 | 29.5 | 47 | 100 | 39 | 12 | 3.7 | <1.0 | 7 | 200 | 0.5 | 0.5 | 
3 | CCN(CC)c1ccc(/C=N\NC(=O)c2nnn(-c3nonc3N)c2CN2CCCCCC2)c(O)c1 [Compound 4] | 100 | 56 | 37 | 28 | 20 | 16 | 87 | 100 | 3.1 | 1.8 | 1.3 | <1.0 | 2 | 690 | 0.1 | 0.15 | 

Reference: patent US9387213B2, “Small molecules inhibiting oncoprotein Myc” (Health Research, Inc., priority 2012, dated 2016)
